Laboratory results as given in patent US10745382B2 (BRISTOL-MYERS SQUIBB COMPANY, priority 2015, dated 2020).
pIC50: −log10 of the molar value. Like-named read-outs stand apart in the source and are kept apart here.

Biological target: T1, PD-1/PD-L1 (Homo sapiens, UniProt Q9NZQ7)
T1 construct: made in house; host or cells: HEK293T
Test: PD-1/PD-L1 Homogenous Time-Resolved Fluorescence (HTRF) binding assay
Conditions: PD-L1-His 10 nM, PD-1-Ig 20 nM, read-out: Range or IC50
In short: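 Compounds are tested for blocking the PD-1/PD-L1 interaction in dPBS supplemented with 0.1% BSA and 0.05% (v/v) Tween-20. Tagged proteins are detected with Eu-cryptate anti-Ig and APC anti-His at 1 and 20 nM final.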

T1 sequence (Q9NZQ7 with tags, fused parts or gaps): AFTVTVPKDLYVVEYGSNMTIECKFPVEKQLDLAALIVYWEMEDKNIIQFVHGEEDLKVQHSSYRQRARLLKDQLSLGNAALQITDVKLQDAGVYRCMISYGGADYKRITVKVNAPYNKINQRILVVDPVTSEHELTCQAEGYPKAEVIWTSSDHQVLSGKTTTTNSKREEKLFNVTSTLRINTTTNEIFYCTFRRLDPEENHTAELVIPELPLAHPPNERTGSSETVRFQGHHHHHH

Row | SMILES | pIC50 (value given as range class) | pIC50 (numeric IC50)
1 | CC(=O)N[C@@H]1CCN(CCCOc2cccc(-c3cccc(COc4cc(OCc5cncc(C#N)c5)c(CN[C@@](C)(CO)C(=O)O)cc4Cl)c3C)c2C)C1 [Example 2270, (2S)-2-(4-((3′-(3-((R)-3-acetamidopyrrolidin-1-yl)propoxy)-2,2′-dimethylbiphenyl-3-yl)methoxy)-5-chloro-2-((5-cyanopyridin-3-yl)methoxy)benzylamino)-3-hydroxy-2-methylpropanoic Acid] | 8.00 to 9.68 | –
2 | Cc1c(COc2cc(OCc3cncc(C#N)c3)c(CN(C)C[C@H](O)CO)cc2Cl)cccc1-c1cccc(OCCCN(C)C[C@H](O)CO)c1C [Example 2271, 5-((4-chloro-2-((((S)-2,3-dihydroxypropyl)(methyl)amino)methyl)-5-((3′-(3-(((S)-2,3-dihydroxypropyl)(methyl)amino)propoxy)-2,2′-dimethylbiphenyl-3-yl)methoxy)phenoxy)methyl)nicotinonitrile] | 8.00 to 9.68 | –
3 | Cc1c(COc2cc(OCc3cncc(C#N)c3)c(CN[C@@](C)(CO)C(=O)O)cc2Cl)cccc1-c1cccc(OCCCN2CCCCC2)c1C [Example 2272, (S)-2-((5-chloro-2-((5-cyanopyridin-3-yl)methoxy)-4-((2,2′-dimethyl-3′-(3-(piperidin-1-yl)propoxy)-[1,1′-biphenyl]-3-yl)methoxy)benzyl)amino)-3-hydroxy-2-methylpropanoic Acid] | 8.00 to 9.68 | –
4 | Cc1c(COc2cc(OCc3cncc(C#N)c3)c(CN[C@@](C)(CO)C(=O)O)cc2Cl)cccc1-c1cccc(OCCCN2CCOCC2)c1C [Example 2273, (S)-2-((5-chloro-2-((5-cyanopyridin-3-yl)methoxy)-4-((2,2′-dimethyl-3′-(3-morpholinopropoxy)-[1,1′-biphenyl]-3-yl)methoxy)benzyl)amino)-3-hydroxy-2-methylpropanoic Acid] | 8.00 to 9.68 | –
5 | Cc1c(COc2cc(OCc3cncc(C#N)c3)c(CN[C@@](C)(CO)C(=O)O)cc2Cl)cccc1-c1cccc(OCCCN2CCC(NC(=O)C(F)(F)F)C2)c1C (stereo partly drawn) [Example 2274, (2S)-2-((5-chloro-2-((5-cyanopyridin-3-yl)methoxy)-4-((2,2′-dimethyl-3′-(3-(3-(2,2,2-trifluoroacetamido)pyrrolidin-1-yl)propoxy)-[1,1′-biphenyl]-3-yl)methoxy)benzyl)amino)-3-hydroxy-2-methylpropanoic Acid] | 8.00 to 9.68 | –
6 | Cc1c(COc2cc(OCc3cncc(C#N)c3)c(CN[C@@](C)(CO)C(=O)O)cc2Cl)cccc1-c1cccc(OCCCN2CCC(CO)CC2)c1C [Example 2275, (S)-2-((5-chloro-2-((5-cyanopyridin-3-yl)methoxy)-4-((3′-(3-(4-(hydroxymethyl)piperidin-1-yl)propoxy)-2,2′-dimethyl-[1,1′-biphenyl]-3-yl)methoxy)benzyl)amino)-3-hydroxy-2-methylpropanoic Acid] | 8.00 to 9.68 | –
7 | CC(=O)N[C@@H]1CCN(CCCOc2cccc(-c3cccc(COc4cc(OCc5cncc(C#N)c5)c(CO)cc4Cl)c3C)c2C)C1 [Example 2276, N-((3R)-1-(3-(3′-((2-chloro-5-((5-cyanopyridin-3-yl)methoxy)-4-(hydroxymethyl)phenoxy)methyl)-2,2′-dimethylbiphenyl-3-yloxy)propyl)pyrrolidin-3-yl)acetamide] | 8.00 to 9.68 | –
8 | CO[C@@H]1CCN(CCCOc2cccc(-c3cccc(COc4cc(OCc5cncc(C#N)c5)c(CO)cc4Cl)c3C)c2C)C1 [Example 2277, 5-((4-chloro-2-(hydroxymethyl)-5-((3′-(3-((R)-3-methoxypyrrolidin-1-yl)propoxy)-2,2′-dimethylbiphenyl-3-yl)methoxy)phenoxy)methyl)nicotinonitrile] | 8.00 to 9.68 | –
9 | CCC(CO)(CO)NCCCOc1cccc(-c2cccc(COc3cc(OCc4cncc(C#N)c4)c(CNC(CC)(CO)CO)cc3Cl)c2C)c1C [Example 2278, 5-((4-chloro-2-(((1-hydroxy-2-(hydroxymethyl)butan-2-yl)amino)methyl)-5-((3′-(3-((1-hydroxy-2-(hydroxymethyl)butan-2-yl)amino)propoxy)-2,2′-dimethyl-[1,1′-biphenyl]-3-yl)methoxy)phenoxy)methyl)nicotinonitrile] | 8.00 to 9.68 | –
10 | CCC(CO)(CO)NCc1cc(Cl)c(OCc2cccc(-c3cccc(OCCCNC[C@H](O)CO)c3C)c2C)cc1OCc1cncc(C#N)c1 [Example 2279, (S)-5-((4-chloro-5-((3′-(3-((2,3-dihydroxypropyl)amino)propoxy)-2,2′-dimethyl-[1,1′-biphenyl]-3-yl)methoxy)-2-(((1-hydroxy-2-(hydroxymethyl)butan-2-yl)amino)methyl)phenoxy)methyl)nicotinonitrile] | 8.00 to 9.68 | –
11 | CCC(CO)(CO)NCc1cc(Cl)c(OCc2cccc(-c3cccc(OCCCN4CC[C@@H](O)C4)c3C)c2C)cc1OCc1cncc(C#N)c1 [Example 2280, (R)-5-((4-chloro-2-(((1-hydroxy-2-(hydroxymethyl)butan-2-yl)amino)methyl)-5-((3′-(3-(3-hydroxypyrrolidin-1-yl)propoxy)-2,2′-dimethyl-[1,1′-biphenyl]-3-yl)methoxy)phenoxy)methyl)nicotinonitrile] | 8.00 to 9.68 | –
12 | Cc1c(COc2cc(OCc3cncc(C#N)c3)c(CNC(CO)(CO)CO)cc2Cl)cccc1-c1cccc(OCCCNC(CO)(CO)CO)c1C [Example 2281, 5-((4-chloro-2-(((1,3-dihydroxy-2-(hydroxymethyl)propan-2-yl)amino)methyl)-5-((3′-(3-((1,3-dihydroxy-2-(hydroxymethyl)propan-2-yl)amino)propoxy)-2,2′-dimethyl-[1,1′-biphenyl]-3-yl)methoxy)phenoxy)methyl)nicotinonitrile] | – | 8.52
13 | Cc1c(COc2cc(OCc3cncc(C#N)c3)c(CNC(CO)(CO)CO)cc2Cl)cccc1-c1cccc(OCCCNC[C@H](O)CO)c1C [Example 2282, (S)-5-((4-chloro-2-(((1,3-dihydroxy-2-(hydroxymethyl)propan-2-yl)amino)methyl)-5-((3′-(3-((2,3-dihydroxypropyl)amino)propoxy)-2,2′-dimethyl-[1,1′-biphenyl]-3-yl)methoxy)phenoxy)methyl)nicotinonitrile] | 8.00 to 9.68 | –
14 | CCC(CO)(CO)NCc1cc(Cl)c(OCc2cccc(-c3cccc(OCCCN4CCCC(CO)C4)c3C)c2C)cc1OCc1cncc(C#N)c1 (stereo not drawn) [Example 2283, 5-((4-chloro-2-(((1-hydroxy-2-(hydroxymethyl)butan-2-yl)amino)methyl)-5-((3′-(3-(3-(hydroxymethyl)piperidin-1-yl)propoxy)-2,2′-dimethyl-[1,1′-biphenyl]-3-yl)methoxy)phenoxy)methyl)nicotinonitrile] | 8.00 to 9.68 | –
15 | Cc1c(COc2cc(OCc3cncc(C#N)c3)c(CNC(CO)(CO)CO)cc2Cl)cccc1-c1cccc(OCCCN2CCCC(CO)C2)c1C (stereo not drawn) [Example 2284, 5-((4-chloro-2-(((1,3-dihydroxy-2-(hydroxymethyl)propan-2-yl)amino)methyl)-5-((3′-(3-(3-(hydroxymethyl)piperidin-1-yl)propoxy)-2,2′-dimethyl-[1,1′-biphenyl]-3-yl)methoxy)phenoxy)methyl)nicotinonitrile] | 8.00 to 9.68 | –
16 | Cc1c(COc2cc(OCc3cncc(C#N)c3)c(CNC(CO)(CO)CO)cc2Cl)cccc1-c1cccc(OCCCN2CC[C@@H](O)C2)c1C [Example 2285, (R)-5-((4-chloro-2-(((1,3-dihydroxy-2-(hydroxymethyl)propan-2-yl)amino)methyl)-5-((3′-(3-(3-hydroxypyrrolidin-1-yl)propoxy)-2,2′-dimethyl-[1,1′-biphenyl]-3-yl)methoxy)phenoxy)methyl)nicotinonitrile] | 8.00 to 9.68 | –
17 | Cc1c(COc2cc(OCc3cncc(C#N)c3)c(CN[C@@](C)(CO)C(=O)O)cc2Cl)cccc1-c1cccc(OCCCNC[C@H](O)CO)c1C [Example 2286, (S)-2-((5-chloro-2-((5-cyanopyridin-3-yl)methoxy)-4-((3′-(3-(((S)-2,3-dihydroxypropyl)amino)propoxy)-2,2′-dimethyl-[1,1′-biphenyl]-3-yl)methoxy)benzyl)amino)-3-hydroxy-2-methylpropanoic Acid] | 8.00 to 9.68 | –
18 | Cc1c(COc2cc(OCc3cncc(C#N)c3)c(CNC(C)(CO)CO)cc2Cl)cccc1-c1cccc(OCCCN2CCCCC2)c1C [Example 2287, 5-((4-chloro-2-(((1,3-dihydroxy-2-methylpropan-2-yl)amino)methyl)-5-((2,2′-dimethyl-3′-(3-(piperidin-1-yl)propoxy)-[1,1′-biphenyl]-3-yl)methoxy)phenoxy)methyl)nicotinonitrile] | 8.00 to 9.68 | –
19 | Cc1c(COc2cc(OCc3cncc(C#N)c3)c(CNC(C)(CO)CO)cc2Cl)cccc1-c1cccc(OCCCN2CCC(CO)CC2)c1C [Example 2288, 5-((4-chloro-2-(((1,3-dihydroxy-2-methylpropan-2-yl)amino)methyl)-5-((3′-(3-(4-(hydroxymethyl)piperidin-1-yl)propoxy)-2,2′-dimethyl-[1,1′-biphenyl]-3-yl)methoxy)phenoxy)methyl)nicotinonitrile] | 8.00 to 9.68 | –
20 | Cc1c(COc2cc(OCc3cncc(C#N)c3)c(CNC(C)(CO)CO)cc2Cl)cccc1-c1cccc(OCCCN2CCC[C@@H](CO)C2)c1C [Example 2289, (R)-5-((4-chloro-2-(((1,3-dihydroxy-2-methylpropan-2-yl)amino)methyl)-5-((3′-(3-(3-(hydroxymethyl)piperidin-1-yl)propoxy)-2,2′-dimethyl-[1,1′-biphenyl]-3-yl)methoxy)phenoxy)methyl)nicotinonitrile] | 8.00 to 9.68 | –
21 | CC(=O)N[C@@H]1CCN(CCCOc2cccc(-c3cccc(COc4cc(OCc5cncc(C#N)c5)c(CNC(C)(CO)CO)cc4Cl)c3C)c2C)C1 [Example 2290, (R)—N-(1-(3-((3′-((2-chloro-5-((5-cyanopyridin-3-yl)methoxy)-4-(((1,3-dihydroxy-2-methylpropan-2-yl)amino)methyl)phenoxy)methyl)-2,2′-dimethyl-[1,1′-biphenyl]-3-yl)oxy)propyl)pyrrolidin-3-yl)acetamide] | 8.00 to 9.68 | –
